Assay results as given in patent US20230013669A1, “Antibacterial Treatment Using a Cannabinoid and an Active Agent” (priority 2019, published 2023).
Several values for one entry are separate records, joined by “and”; a condition that tells them apart may be missing. Equal entries are not always repeated. Where two headings read alike, the source gives them in different places.

Tested on: Escherichia coli ATCC 25922 (GN_001)
Experiment: Synergy of cannabidiol with cell-wall disrupting agent (CBD MIC in combination, FICI)
Type: cell-based
Details: for FICI: calculated using MIC of 256 μg/mL for cannabidiol; for MIC: Escherichia coli
Protocol: The compounds were stored short term at 4° C.
Analysis was performed using Microsoft Excel.

C=C(C)C1CCC(C)=CC1c1c(O)cc(CCCCC)cc1O (stereo not shown) [Cannabidiol, 2-[3-methyl-6-(1-methylethenyl)-2-cyclohexen-1-yl]-5-pentyl-1,3-benzenediol]
CBD MIC with Cefuroxime (Cefuroxime at 4 μg/mL, Escherichia coli ATCC 25922): 0.001 µg/mL | CBD MIC with Cefuroxime (Cefuroxime at 8 μg/mL, Escherichia coli ATCC 25922): 0.001 µg/mL | CBD MIC with Colistin (Colistin at 0.06 μg/mL (0.062 in Table 56), Escherichia coli ATCC 25922): 8 µg/mL | CBD MIC with Colistin (Colistin at 0.25 μg/mL, Escherichia coli ATCC 25922): 1 µg/mL | CBD MIC with Colistin (Colistin at 0.5 μg/mL, Escherichia coli ATCC 25922): 0.125 µg/mL | CBD MIC with Colistin (Colistin at […], Escherichia coli ATCC 25922): 2 µg/mL | FICI range (Escherichia coli ATCC 25922, CBD with FADDI-287, MIC table (Table 95), listed as CBD): 0.5-16 and 0.25-8 | FICI range (Escherichia coli ATCC 25922, CBD with FADDI-287, Synergy table (Table 97), listed as CBD): 0.5 and 0.25-0.5 | FICI range (Escherichia coli ATCC 25922, CBD with MCC_8980, MIC table (Table 99)): 0.03-1.02 | FICI range (Escherichia coli ATCC 25922, CBD with MCC_8980, Synergy table (Table 101), listed as CBD): 0.03-0.26 and 0.03-0.25 | FICI range (Escherichia coli ATCC 25922, CBD with Spero Potentiator SPR741, MIC table (Table 91), listed as CBD): 0.02-1 and 0.04-1.02 and 0.02-1.01 | FICI range (Escherichia coli ATCC 25922, CBD with Spero Potentiator SPR741, Synergy table (Table 93), listed as CBD): 0.02-0.25 and 0.04-0.25 | CBD MIC with FADDI-287 (Escherichia coli ATCC 25922, FADDI-287 at […], listed as CBD): 1 µg/mL | CBD MIC with MCC_8980 (Escherichia coli ATCC 25922, MCC_8980 at 4 μg/mL, listed as CBD): 16 µg/mL | CBD MIC with MCC_8980 (Escherichia coli ATCC 25922, MCC_8980 at 16 μg/mL, listed as CBD): 1 µg/mL | CBD MIC with Spero SPR206 (Escherichia coli ATCC 25922, Spero SPR206 at 4 μg/mL, listed as CBD): 0.0019 µg/mL | FICI (Escherichia coli ATCC 25922, cannabidiol with FADDI-287 at 0.5 μg/mL): 2 | FICI (Escherichia coli ATCC 25922, cannabidiol with FADDI-287 at 1 μg/mL): 4 and 2 | FICI (Escherichia coli ATCC 25922, cannabidiol with FADDI-287 at 2 μg/mL): 8 and 4 | FICI (Escherichia coli ATCC 25922, cannabidiol with FADDI-287 at 4 μg/mL): 16 and 8 | FICI (Escherichia coli ATCC 25922, cannabidiol with FADDI-287 at […]): 0.502 | FICI (Escherichia coli ATCC 25922, cannabidiol with MCC_8980 at 0.5 μg/mL): 1.008 | FICI (Escherichia coli ATCC 25922, cannabidiol with MCC_8980 at 1 μg/mL): 1.016 | FICI (Escherichia coli ATCC 25922, cannabidiol with MCC_8980 at 2 μg/mL): 0.03125 | FICI (Escherichia coli ATCC 25922, cannabidiol with MCC_8980 at 4 μg/mL): 0.1875 | FICI (Escherichia coli ATCC 25922, cannabidiol with MCC_8980 at 4 μg/mL, listed as cannabidiol): 0.125 | FICI (Escherichia coli ATCC 25922, cannabidiol with MCC_8980 at 8 μg/mL): 0.1328 | FICI (Escherichia coli ATCC 25922, cannabidiol with SPR741 at 0.5 μg/mL): 1.008 and 1.004 | FICI (Escherichia coli ATCC 25922, cannabidiol with SPR741 at 1 μg/mL): 1.016 | FICI (Escherichia coli ATCC 25922, cannabidiol with SPR741 at 16 μg/mL): 0.127 | MIC (ATCC25922, Escherichia coli ATCC 25922, FADDI-287 at 0.25 μg/mL, read-out: CBD MIC with FADDI-287): 0.062 µg/mL | MIC (ATCC25922, Escherichia coli ATCC 25922, FADDI-287 at 0.5 μg/mL, read-out: CBD MIC with FADDI-287): 0.001 µg/mL | MIC (ATCC25922, Escherichia coli ATCC 25922, FADDI-287 at 1 μg/mL, read-out: CBD MIC with FADDI-287): 0.001 µg/mL | MIC (ATCC25922, Escherichia coli ATCC 25922, FADDI-287 at 2 μg/mL, read-out: CBD MIC with FADDI-287): 0.001 µg/mL | MIC (ATCC25922, Escherichia coli ATCC 25922, FADDI-287 at 4 μg/mL, read-out: CBD MIC with FADDI-287): 0.001 µg/mL | MIC (ATCC25922, Escherichia coli ATCC 25922, MCC_8980 at 2 μg/mL, read-out: CBD MIC with MCC_8980): 0.001 µg/mL | MIC (ATCC25922, Escherichia coli ATCC 25922, MCC_8980 at 4 μg/mL, read-out: CBD MIC with MCC_8980): 32 µg/mL | MIC (ATCC25922, Escherichia coli ATCC 25922, MCC_8980 at 8 μg/mL, read-out: CBD MIC with MCC_8980): 2 µg/mL | MIC (ATCC25922, Escherichia coli ATCC 25922, MCC_8980 at 16 μg/mL, read-out: CBD MIC with MCC_8980): 2 µg/mL | MIC (ATCC25922, Escherichia coli ATCC 25922, Spero SPR206 at 0.007 μg/mL, read-out: CBD MIC with Spero SPR206): ≥ 32 µg/mL | MIC (ATCC25922, Escherichia coli ATCC 25922, Spero SPR206 at 0.015 μg/mL, read-out: CBD MIC with Spero SPR206): ≥ 32 µg/mL | MIC (ATCC25922, Escherichia coli ATCC 25922, Spero SPR206 at 0.062 μg/mL, read-out: CBD MIC with Spero SPR206): 1 µg/mL | MIC (ATCC25922, Escherichia coli ATCC 25922, Spero SPR206 at 4 μg/mL, read-out: CBD MIC with Spero SPR206): 0.001 µg/mL | MIC (ATCC25922, MCC_6442 at 2 μg/mL, Escherichia coli ATCC 25922, read-out: CBD MIC with MCC_6442): 0.0039 µg/mL | MIC (ATCC25922, MCC_6442 at 4 μg/mL, Escherichia coli ATCC 25922, read-out: CBD MIC with MCC_6442): 0.001 µg/mL | MIC (ATCC25922, Octapeptin C4 at 4 μg/mL, read-out: CBD MIC with Octapeptin C4): 0.062 µg/mL | MIC (ATCC25922, Spero SPR206 at 0.007 μg/mL, 2nd of 3 experiments, read-out: CBD MIC with Spero SPR206): > 256 µg/mL | MIC (ATCC25922, Spero SPR206 at 0.015 μg/mL, 2nd of 3 experiments, read-out: CBD MIC with Spero SPR206): > 256 µg/mL | MIC (ATCC25922, Spero SPR206 at 0.062 μg/mL, 2nd of 3 experiments, read-out: CBD MIC with Spero SPR206): 1 µg/mL | MIC (ATCC25922, Spero SPR206 at 0.25 μg/mL, 1st of 3 experiments, read-out: CBD MIC with Spero SPR206): 0.001 µg/mL | MIC (ATCC25922, Spero SPR206 at 0.25 μg/mL, 2nd of 3 experiments, read-out: CBD MIC with Spero SPR206): 1 µg/mL | MIC (ATCC25922, Spero SPR206 at 0.25 μg/mL, 3rd of 3 experiments, read-out: CBD MIC with Spero SPR206): > 256 µg/mL | MIC (ATCC25922, Spero SPR206 at 0.5 μg/mL, 1st of 3 experiments, read-out: CBD MIC with Spero SPR206): 0.001 µg/mL | MIC (ATCC25922, Spero SPR206 at 0.5 μg/mL, 3rd of 3 experiments, read-out: CBD MIC with Spero SPR206): 2 µg/mL | MIC (ATCC25922, Spero SPR206 at 1 μg/mL, 1st of 3 experiments, read-out: CBD MIC with Spero SPR206): 0.001 µg/mL | MIC (ATCC25922, Spero SPR206 at 1 μg/mL, 3rd of 3 experiments, read-out: CBD MIC with Spero SPR206): 0.5 µg/mL | MIC (ATCC25922, Spero SPR206 at 2 μg/mL, 1st of 3 experiments, read-out: CBD MIC with Spero SPR206): 0.001 µg/mL | MIC (ATCC25922, Spero SPR206 at 2 μg/mL, 3rd of 3 experiments, read-out: CBD MIC with Spero SPR206): 0.25 µg/mL | MIC (ATCC25922, Spero SPR206 at 4 μg/mL, 1st of 3 experiments, read-out: CBD MIC with Spero SPR206): 0.001 µg/mL | MIC (ATCC25922, Spero SPR206 at 4 μg/mL, 3rd of 3 experiments, read-out: CBD MIC with Spero SPR206): 0.001 µg/mL | activity of cannabidiol in combination with Polymyxin B (Example 1): effective | Average FICI score (Example 1, GN_001, cannabidiol + MCC_006636 (Polymyxin B)): 0.15 | Synergy (Example 1, GN_001, cannabidiol + MCC_006636 (Polymyxin B), synergy when FICI≤0.5): YES | activity of cannabidiol combined with colistin (Example 3): effective | CBD MIC with Colistin at concentration 0.015625 μg/mL (Example 3, GN_001): >256 µg/mL | CBD MIC with Colistin at concentration 0.03125 μg/mL (Example 3, GN_001): >256 µg/mL | CBD MIC with Colistin at concentration 0.0625 μg/mL (Example 3, GN_001): 8 µg/mL | CBD MIC with Colistin at concentration 0.25 μg/mL (Example 3, GN_001): 1 µg/mL | CBD MIC with Colistin at concentration 0.5 μg/mL (Example 3, GN_001): 0.125 µg/mL | CBD MIC with Colistin at concentration […] (Example 3, GN_001): 2 µg/mL | activity of cannabidiol combined with Polymyxin B (Example 6): effective | CBD MIC with Polymyxin B at concentration 0.015625 μg/mL (Example 6, GN_001): >256 µg/mL | CBD MIC with Polymyxin B at concentration 0.03125 μg/mL (Example 6, GN_001): >256 µg/mL | CBD MIC with Polymyxin B at concentration 0.0625 μg/mL (Example 6, GN_001): >256 µg/mL | CBD MIC with Polymyxin B at concentration 0.5 μg/mL (Example 6, GN_001): 0.0009766 µg/mL | CBD MIC with Polymyxin B at concentration […] (Example 6, GN_001): >256 µg/mL | CBD MIC with Polymyxin B at concentration 0.25 μg/mL (Example 6, GN_001, listed as CBD): 2 µg/mL and 4 µg/mL | activity of cannabidiol in combination with octapeptin MCC_006442 (Example 7): slightly effective | activity of cannabidiol combined with ticarcillin (Example 13): effective | activity of cannabidiol combined with colistin (Example 14): effective | activity of cannabidiol combined with octapeptin MCC_006442 (Example 15): effective | activity of cannabidiol combined with cefotetan (Example 17): effective | activity of cannabidiol combined with aztreonam (Example 18): effective | activity of cannabidiol combined with cefepime (Example 19): effective | activity of cannabidiol combined with octapeptin C4 (Example 21): effective | activity of cannabidiol in combination with Spero Potentiator SPR741 (Example 22): effective | activity of cannabidiol in combination with Spero SPR206 (Example 22): effective | activity of cannabidiol in combination with octapeptin FADDI-287 (Example 23): effective | activity of cannabidiol in combination with MCC_8980 (Example 24): effective | CBD MIC with MCC_6442 (MCC_6442 at 2 μg/mL, Escherichia coli ATCC 25922, listed as CBD): 0.0078 µg/mL | CBD MIC with Spero SPR206 (Spero SPR206 at 1 μg/mL, 3rd of 3 experiments, listed as CBD): 0.25 µg/mL | CBD MIC with Spero SPR206 (Spero SPR206 at 4 μg/mL, 3rd of 3 experiments, listed as CBD): 0.0019 µg/mL | CBD MIC with Ticarcillin (Ticarcillin at 4 μg/mL, Escherichia coli ATCC 25922): 0.125 µg/mL | CBD MIC with Ticarcillin (Ticarcillin at 8 μg/mL, Escherichia coli ATCC 25922): 0.001 µg/mL
